Data on four molecules can be found in paper PMC12799524, “Putative new biomarkers for renal transporter-mediated drug-drug interactions: Characterization as substrates of organic cation transporter 2, multidrug and toxin extrusion protein 1, and other important drug transporters” (Drug Metabolism and Disposition, 2025).

The target in series [1] is T1, human OATP1B1 (Homo sapiens, UniProt Q9Y6L6).
T1 construct: expressed in transfected cells; host or cells: HEK293 (HEK-OATP1B1)
T1 sequence (Q9Y6L6 1-691): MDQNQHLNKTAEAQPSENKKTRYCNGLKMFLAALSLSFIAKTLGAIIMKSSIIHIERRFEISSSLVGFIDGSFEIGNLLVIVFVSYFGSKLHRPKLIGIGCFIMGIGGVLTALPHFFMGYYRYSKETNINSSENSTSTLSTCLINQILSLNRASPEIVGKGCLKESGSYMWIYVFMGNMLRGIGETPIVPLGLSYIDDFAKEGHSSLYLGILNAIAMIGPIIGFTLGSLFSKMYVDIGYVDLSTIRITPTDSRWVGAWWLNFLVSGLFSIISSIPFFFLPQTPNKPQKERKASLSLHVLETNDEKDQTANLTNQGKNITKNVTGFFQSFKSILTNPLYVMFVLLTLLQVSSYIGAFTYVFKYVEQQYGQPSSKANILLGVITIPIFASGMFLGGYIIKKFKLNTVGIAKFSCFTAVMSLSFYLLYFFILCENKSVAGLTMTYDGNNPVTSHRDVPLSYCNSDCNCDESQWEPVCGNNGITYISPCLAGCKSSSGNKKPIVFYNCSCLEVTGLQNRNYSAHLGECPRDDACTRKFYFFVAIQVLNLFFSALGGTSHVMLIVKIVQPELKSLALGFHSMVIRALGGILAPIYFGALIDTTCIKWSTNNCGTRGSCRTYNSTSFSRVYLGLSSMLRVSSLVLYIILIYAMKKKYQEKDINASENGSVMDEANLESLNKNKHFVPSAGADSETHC
Description: Uptake assay in HEK-OATP1B1 vs HEK-VC cells. It is filed as in vitro ADME. The method, then:
(§1) Transport experiments were performed 48 hours after seeding.

Details of series [2]: method as in PMID 39148267. Conditions: humans, cited from earlier work; for In Vivo Change of Renal Excretion, Cimetidine: median log2-fold change after treatment with cimetidine; for In Vivo Change of Renal Excretion, Probenecid: median log2-fold change after treatment with probenecid; for In Vivo Change of Renal Excretion, Rifampin: median log2-fold change after treatment with rifampin; for In Vivo Change of Renal Excretion, Verapamil: median log2-fold change after treatment with verapamil.

Series [3] concerns the target T2, human OAT1 (Homo sapiens, UniProt Q4U2R8).
T2 construct: expressed in transfected cells; host or cells: HEK293 (HEK-OAT1), plasmid pOAT1.31 in pcDNA3.1/Hy(-)
T2 sequence (Q4U2R8 1-563): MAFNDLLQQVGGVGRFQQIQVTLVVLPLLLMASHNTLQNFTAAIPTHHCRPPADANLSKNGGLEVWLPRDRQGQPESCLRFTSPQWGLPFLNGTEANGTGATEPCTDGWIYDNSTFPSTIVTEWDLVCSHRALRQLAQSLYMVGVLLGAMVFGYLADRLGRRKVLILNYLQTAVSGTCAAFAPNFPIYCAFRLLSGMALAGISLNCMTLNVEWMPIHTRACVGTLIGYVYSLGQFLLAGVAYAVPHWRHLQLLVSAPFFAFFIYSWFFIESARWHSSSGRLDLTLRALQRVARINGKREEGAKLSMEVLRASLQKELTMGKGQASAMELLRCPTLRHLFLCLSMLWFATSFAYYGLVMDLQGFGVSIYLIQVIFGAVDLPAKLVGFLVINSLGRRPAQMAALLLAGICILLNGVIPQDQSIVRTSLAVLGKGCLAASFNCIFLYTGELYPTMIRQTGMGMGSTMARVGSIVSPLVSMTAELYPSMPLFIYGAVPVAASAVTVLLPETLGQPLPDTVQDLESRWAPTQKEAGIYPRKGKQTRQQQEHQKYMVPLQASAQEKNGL
Nature of the series: Uptake assay in HEK-OAT1 vs HEK-VC cells. The format is in vitro ADME. The method, then: as §1

The mark [4] stands for this setting: listed as 5-amino valeric acid betaine.

Molecules are shown by their SMILES. Read-outs that look alike come from different tables or passages of the source. Marks after values point to notes of the source that are not given here.

On to `C[N+](C)(C)CCCCC(=O)[O-]` [5-Amino valeric acid betaine, 5-amino valeric acid betaine], for which the “In Vitro OATP1B1 (substrate class)” value in series [1] is reported as 0 (significant uptake in HEK cells, but less than 300% of respective control cells or significant reduction of transcellular transport in Caco-2 cells, but reduction not below 50% of respective control without valspodar). For the same molecule, in series [2] (cimetidine), the “Renal elimination, change after cimetidine” value is listed as “–3.62 log2-fold change”. For the same molecule, in series [2], the “In Vivo Change of Renal Excretion, Cimetidine” value (from here on “In Vivo Change … Cimetidine”) is listed as “–4.28 ^c log2-fold change”; the “In Vivo Change of Renal Excretion, Probenecid” value (shortened to “In Vivo Change … Probenecid”) was “–0.56 ^c log2-fold change”; the “In Vivo Change of Renal Excretion, Rifampin” value (shortened to “In Vivo Change … Rifampin”) was “–0.21 log2-fold change”; the “In Vivo Change of Renal Excretion, Verapamil” value (“In Vivo Change … Verapamil” below) is given as “–1.00 log2-fold change”. Further, in series [2] (setting [4]), the “In Vivo Change … Cimetidine” value was “–4.28 log2-fold change” and the “In Vivo Change … Probenecid” value is on record as “–1.00 log2-fold change”. For the same molecule, the “In Vitro OAT1 (substrate class)” value in series [3] is listed as “-”.
Take `NCCc1ccc(O)cc1` [Tyramine, tyramine]: the “In Vitro OATP1B1 (substrate class)” value in series [1] is given as 0 (significant uptake in HEK cells, but less than 300% of respective control cells or significant reduction of transcellular transport in Caco-2 cells, but reduction not below 50% of respective control without valspodar). Also, in series [2], the “In Vivo Change … Cimetidine” value is listed as “–3.00 ^c log2-fold change”; the “In Vivo Change … Probenecid” value was “–0.82 log2-fold change”; the “In Vivo Change … Rifampin” value is reported as “–0.11 log2-fold change”; the “In Vivo Change … Verapamil” value was “–0.22 log2-fold change”. The “In Vitro OAT1 (substrate class)” value in series [3] is “-”.
`NCCc1c[nH]c2ccc(O)cc12` [Serotonin, serotonin]: the “In Vitro OATP1B1 (substrate class)” value in series [1] is reported as “-”. In addition, in series [2] (cimetidine), the “Plasma concentrations, effect of cimetidine” value is recorded as “did not sensitively change” and the “Urine to plasma ratio, change by cimetidine” value is given as “–1.94 log2-fold change”. Further, in series [2], the “In Vivo Change … Cimetidine” value is “–2.89 ^c log2-fold change”; the “In Vivo Change … Probenecid” value is reported as 0.06 log2-fold change; the “In Vivo Change … Rifampin” value is reported as “–0.06 log2-fold change”; the “In Vivo Change … Verapamil” value was 0.00 log2-fold change. The “In Vivo Change … Cimetidine” value in series [2] (listed as serotonin) is listed as “–2.89 log2-fold change”. Besides, the “In Vitro OAT1 (substrate class)” value in series [3] is on record as “-”.
On to `Cn1cnc(CCN)c1` [1-Methylhistamine, 1-methylhistamine], for which the “In Vitro OATP1B1 (substrate class)” value in series [1] is “-”. For the same molecule, in series [2], the “In Vivo Change … Cimetidine” value is recorded as “–2.01 ^c log2-fold change”; the “In Vivo Change … Probenecid” value was “–0.25 log2-fold change”; the “In Vivo Change … Rifampin” value is recorded as “–0.07 log2-fold change”; the “In Vivo Change … Verapamil” value is 0.03 log2-fold change. Besides, in series [3], the “In Vitro OAT1 (substrate class)” value is “-”.
